Data: patent US20240139197A1, “INHIBITION OF KDM5A FOR PROMOTING ANTIGEN PRESENTATION, INCREASING CD8+ T CELL INFILTRATION AND BOOSTING ANTI-TUMOR IMMUNE RESPONSE” (The Wistar Institute of Anatomy and Biology, priority 2022, published 2024)

What was measured:
HGSOC cell lines = experiment: dose response by colony formation assay in HGSOC/EOC cell lines; format: cell-based, human; settings: panel of EOC cell lines, regardless of KDM5A expression status, dose response curve
Description: FIG. 5A-FIG. 5G show KDM5A is overexpressed in HGSOC and its expression negatively correlates with infiltration of CD8+ T cells. (FIG. 5A) Correlation between KDM5A and CD8A expression in the TCGA HGSOC dataset. (FIG. 5B) Correlation between KDM5A and CD8A expression in a published laser capture and microdissected (LCM) HGSOC dataset. (FIG. 5C) Correlation between KDM5A and PRFI expression in the TCGA HGSOC dataset. (FIG. 5D) Representative images of KDM5A IHC staining of HGSOC in a tumor microarray. (FIG. 5E) Relative expression of KDM5A in LCM of HGSOC and normal human ovarian surface epithelial cells (HOSE) or fallopian tube epithelial cells (FTE). (FIG. 5F) Expression of KDM5A and a loading control β-actin in the indicated FTE cells and HGSOC cell lines determined by immunoblot. (FIG. 5G) Dose response curves to KDM5A inhibitor CPI-455 determined by colony formation assay in the indicated HGSOC cell lines. Data represent mean±SEM; P values were calculated by using a two-tailed Student t test except in FIG. 5A and FIG. 5B by using Pearson r analysis.
Insulin/Transferrin/Selenium (Invitrogen, Cat #51300), […] Hydrocortisone (Sigma, Cat #H0135), 10 ng/ml Murine epidermal growth factor (Sigma, Cat #E4127) and 1% penicillin/streptomycin at 37° C.with 5% CO2. […]

[1] = test system: H2-K1 gene promoter in ID8 cells; experiment: ChIP at H2-K1 gene promoter; format: cell-based, mouse; settings: ID8, IFNγ, anti-H3K4me3 ChIP
Description: FIG. 4A-FIG. 4M show KDM5A regulates antigen processing and presentation pathway. (FIG. 4A) Experimental strategy used to identify Kdm5a direct target genes. […] (FIG. 4B) CUT&RUN tracks of the newly identified Kdm5a target gene H2-K1 for Kdm5a and H3K4me3 in ID8 cells. (FIG. 4C) Expression of H2-K1 in doxycycline-inducible shKdm5a ID8 cells, Kdm5a inhibitor CPI-455, or Kdm5a knockout cells with or without IFNγ stimulation determined by RT-qPCR. (FIG. 4D) Cell surface expression of H2-K1 in control and Kdm5a knockout ID8 cells with or without IFNy stimulation was determined by FACS analysis. (FIG. 4E) Quantification of FIG. 4D. (FIG. 4F) Cell surface expression of H2-K1 in control and doxycyclineinducible Kdm5a-knockdown ID8 cells with or without IFNγ stimulation was determined by FACS analysis. (FIG. 4G) Quantification of FIG. 4F. (FIG. 4H) Cell surface expression of H2-K1 in D8 cells treated with vehicle or CPI-455 with or without IFNγ stimulation was determined by FACS analysis. (FIG. 4I) Quantification of FIG. 4H; An isotype matched IgG was used as a negative control for all the FACS analysis. […] Data represent mean±SEM of three biological repeats; P-value was calculated by using a two-tailed Student t test except in FIG. 4L by using Pearson r analysis test and FIG. 4M by using Fisher's exact test. […]

CPI-455 was tested, and the “cell viability in vitro” value (HGSOC cell lines) was “did not affect cell viability” and the “association of H3K4me3 with H2-K1 gene promoter” value [1] was “increased the association of H3K4me3”.
